The source of these data is ChEMBL document CHEMBL1275572, “KPC-2-producing Enterobacter cloacae and pseudomonas putida coinfection in a liver transplant recipient” (2009).

Values after ≈ are worked out from the molar mass of the structure shown. Some results are limits rather than exact numbers.

Assay [1] relates to Pseudomonas putida. In words: Antimicrobial activity against Pseudomonas putida expressing beta-lactamase KPC-2 and SHV-12 obtained from criticall ill liver transplant recipient by broth microdilution method. The format is functional.
The test system of assay [2] is Enterobacter cloacae. The assay is described as follows: Antimicrobial activity against Enterobacter cloacae expressing beta-lactamase KPC-2 and SHV-12 obtained from criticall ill liver transplant recipient by broth microdilution method. The class given is functional.
The test system of assay [3] is Enterobacter cloacae. In words: Antimicrobial activity against Enterobacter cloacae expressing beta-lactamase KPC-2 and SHV-12 obtained from criticall ill liver transplant recipient by broth microdilution method in presence of beta-lactamase inhibitor Tazobactam. The format is functional. Background: Broth dilution looks for growth in wells or tubes with falling amounts of substance.

For assay [4], the system named is Pseudomonas putida. In words: Antimicrobial activity against Pseudomonas putida expressing beta-lactamase KPC-2 and SHV-12 obtained from criticall ill liver transplant recipient by broth microdilution method in presence of beta-lactamase inhibitor Tazobactam. The format is functional.
The next assay has as its system Acinetobacter sp. In words: Antimicrobial activity against Acinetobacter spp. The format is functional, organism-based.

Description for Pseudomonas aeruginosa: Antimicrobial activity against Pseudomonas aeruginosa

Broadly, the MIC is the lowest concentration found to suppress growth. Take `CO[C@@]1(NC(=O)Cc2cccs2)C(=O)N2C(C(=O)O)=C(COC(N)=O)CS[C@@H]21` [CEFOXITIN]: the MIC in the assay on Pseudomonas putida [1] and against Enterobacter cloacae [2] was more than 32 µg/mL each time.
For the compound `CC(C)(O/N=C(\C(=O)N[C@@H]1C(=O)N2C(C(=O)[O-])=C(C[n+]3ccccc3)CS[C@H]12)c1csc(N)n1)C(=O)O` [CEFTAZIDIME], the MIC with Pseudomonas putida [1] and against Enterobacter cloacae [2] was more than 32 µg/mL in each case.
For the compound `C[C@@H](O)[C@H]1C(=O)N2C(C(=O)O)=C(S[C@@H]3CN[C@H](C(=O)Nc4cccc(C(=O)O)c4)C3)[C@H](C)[C@H]12`, the MIC in the assay on Pseudomonas putida [1] and in the assay on Enterobacter cloacae [2] was more than 8 µg/mL throughout.
On to `NCC[C@H](O)C(=O)N[C@@H]1C[C@H](N)[C@@H](O[C@H]2O[C@H](CN)[C@@H](O)[C@H](O)[C@H]2O)[C@H](O)[C@H]1O[C@H]1O[C@H](CO)[C@@H](O)[C@H](N)[C@H]1O` [AMIKACIN], for which the minimum inhibitory concentration (MIC) stood at 1 µg/mL (≈ 1.71 µM) against Pseudomonas putida [1] and 16 µg/mL (≈ 27.3 µM) with Enterobacter cloacae [2].
Turning to `CO/N=C(\C(=O)N[C@@H]1C(=O)N2C(C(=O)O)=C(CSc3nc(=O)c(O)nn3C)CS[C@H]12)c1csc(N)n1` [CEFTRIAXONE], the MIC in the assay on Pseudomonas putida [1] and in the assay with Enterobacter cloacae [2] was more than 32 µg/mL each time.
Take `C[C@@H](O)[C@H]1C(=O)N2C(C(=O)O)=C(SCCNC=N)C[C@H]12` [IMIPENEM ANHYDROUS]: the MIC against Pseudomonas putida [1] and in the assay on Enterobacter cloacae [2] was more than 4 µg/mL each time.
Take GENTAMICIN: the MIC against Pseudomonas putida [1] and in the assay on Enterobacter cloacae [2] was more than 8 µg/mL throughout.
`C[C@H]1COc2c(N3CCN(C)CC3)c(F)cc3c(=O)c(C(=O)O)cn1c23.C[C@H]1COc2c(N3CCN(C)CC3)c(F)cc3c(=O)c(C(=O)O)cn1c23.O` [LEVOFLOXACIN]: the MIC was more than 16 µg/mL in the assay with Pseudomonas putida [1] and 2 µg/mL with Enterobacter cloacae [2].
The like results for `C[C@@H](O)[C@H]1C(=O)N2C(C(=O)O)=C(S[C@@H]3CN[C@H](C(=O)N(C)C)C3)[C@H](C)[C@H]12` [MEROPENEM] were, in that order, more than 4 µg/mL and more than 4 µg/mL.
The compound `CO/N=C(\C(=O)N[C@@H]1C(=O)N2C(C(=O)[O-])=C(C[N+]3(C)CCCC3)CS[C@H]12)c1csc(N)n1` registered an MIC against Pseudomonas putida [1] of more than 32 µg/mL.
Turning to `NC[C@H]1O[C@H](O[C@H]2[C@H](O)[C@@H](O[C@H]3O[C@H](CO)[C@@H](O)[C@H](N)[C@H]3O)[C@H](N)C[C@@H]2N)[C@H](N)C[C@@H]1O` [TOBRAMYCIN], the minimal inhibitory concentration (MIC) against Pseudomonas putida [1] and against Enterobacter cloacae [2] was more than 8 µg/mL each time.
Turning to `CCN1CCN(C(=O)N[C@@H](C(=O)N[C@@H]2C(=O)N3[C@@H]2SC(C)(C)[C@@H]3C(=O)O)c2ccccc2)C(=O)C1=O` [PIPERACILLIN], the MIC in the assay with Enterobacter cloacae [3] and in the assay with Pseudomonas putida [4] was more than 128 µg/mL each time.
In the case of COLISTIN, the MIC in the assay on Pseudomonas putida [1] was 2 µg/mL; against Pseudomonas aeruginosa it was more than 16 µg/mL; in the assay on Enterobacter cloacae [2], more than 16 µg/mL; with Acinetobacter sp., more than 16 µg/mL.
